Test results taken from patent US20080031868A1, “HUMAN LYSOZYME MEDICINE, ITS MANUFACTURING METHOD AND APPLICATION THEREOF” (priority 2005, published 2008).
Marks after values point to notes of the source that are not given here.

Legend:
[1] = system: Staphylococcus aureus MRSABAA-42; test: Bronchus pneumonia mice infected by Staphylococcus aureus MRSA BAA-42, treated by atomization inspiring; type: in vivo; settings: for survival rate (%): 14 days; for bacterial number: mice lung
Text: A, atomization sucks gene recombinant Human Lysozyme (HLZ) cured bronchus pneumonia mice infected by Staphylococcus aureus MRSABAA-42
Choose the test lawn, after washing with the physiological saline, correcting by McB tubes for comparative tests bacterium solution concentration 2#MCF, turbidity of 2.7×10^11 CFU/ml, diluted with physiological saline separately into 10^−1, 10^−2, 10^−3 bacterium solution, drip the nose to infect for mice respectively (anaesthetize the mice with the pentobarbital first, 30 mg/kg, ip.), 0.05 ml a mouse. Observed the mice body changing, and killed parts of mice after infecting 48 h, fetch the whole lung to tissue homogenate, 10 times diluted by physiological saline, draw 0.1 m1 to MH agar plate surface, to cultivate last night 35° C., Gram staining, test under microscope, and count plate. At the same time recorded the number of death mice, and collect some mice tracheas, bronchus, lung tissue and do pathology tissue observing.
It is called medial lethal dose (LD50) that bacterium amount caused mice appearing lung pharmacology change and 50% died. LD50was used as experimental treatment amount.
Infected mice is divided into 10 groups at random according to the weight, 30 every groups.
Designed dosage: The concentration of recombinant human lysozyme medicine was 15000 u/ml as in clinical atomization therapy. Its dose was 15000 u per time and administrated one time everyday, I.e 0.5 mg per time everyday. The dose was 1.3×10-3 mg a mice (counted by weight of 20 g). […] To ensure the breathing amount of lysozyme, the breathing time were extended for 0.5 hour. Based on 0.5 mg/ml, the concentration of 0.25 mg/ml, 1.0 mg/ml and 2.0 mg/ml were set respectively as treatment dose.
The same group mice were put into the ultrasonic atomizer and then treated with human lysozyme atomized in the compression sprayer (PARL.BOY), twice a day, 5 days in succession.
Every group, from the infected day to calculae, the animal incidence and death were recorded 14 days in succession. Every group collected 2-3 mice and killed them the 14th day after infecting, did bacteriology detection after lung homogenate, killed surplus animal to fetch the trachea, bronchus, fixed in 10% of the formaldehyde solution after weighing, did pathology check.
The bacterial culture: A part of mice were killed after infecting 24 h, fetched the whole lung weighting, added 2 ml degerming PBS solution 10 times diluted, draw 0.1 mL to MH agar plate surface, to cultivate last night 35° C., counted in the cultivation plateform of 30-300 CF, if the two close level tissue fluid is 30-300 CFU, counted the low density (make 3 plateforms at the same time each tissue fluid, calculate the average). Collected 2 mice to do bacterial culture in every group at random in 5, 7, 14 days after administration.
Pathology detection: After dissecting the mice, observed the trachea, bronchus, syncretio of lung, chest wall and membrana pleuralis, the volume of lung and size of lung focus, the lung surface was congested, hydroncus, consolidation and atelectasis by the naked eye. Took out the trachea, bronchus and the whole lung tissue to fixed with 10% of the formaldehyde solution, draw materials.

[2] = system: Staphylococcus aureus MRSABAA-42; test: as above; type: in vivo; settings: for accumulative survival number: 30 mice; for survival elevation rate (%): versus infected model group
[3] = 0.25 mg/ml atomization inspired, listed as gene recombinant human lysozyme
[4] = 0.25 mg/ml atomization inspired, listed as recombinant human lysozyme
[5] = 0.25 mg/ml atomization inspired
[6] = 0.25 mg/ml atomization inspired, 14 days
[7] = 0.5 mg/ml atomization inspired, 14 days

Which results are given for “Human lysozyme: gene recombinant Human Lysozyme (HLZ), active unit 30000 u/mg, batch number 020110; given atomized / as aerosol”?
survival rate (%) [1, 3]: 40%; survival rate (%) [1, 4]: 40%; average survival day (day, x ± s) [1, 3]: 9.30 ± 4.08 days; average survival day (day, x ± s) [1, 4]: 9.30 ± 4.08 days; Death number(piece) ([1]; 0.5 mg/ml atomization inspired, day 7): 4 piece; average survival day (day, x ± s) ([1]; 0.5 mg/ml atomization inspired, listed as gene recombinant human lysozyme): 10.3 ± 3.77 days; average survival day (day, x ± s) ([1]; 0.5 mg/ml atomization inspired, listed as recombinant human lysozyme): 3.77 ± 10.3 days; survival number ([1]; 1 mg/ml atomization inspired, 30 mice): 17; average survive days ([1]; 1 mg/ml atomization inspired, listed as gene recombinant human lysozyme): 11.2 ± 3.36 days; average survive days ([1]; 1 mg/ml atomization inspired, listed as recombinant human lysozyme): 11.23 ± 3.36 days; Death number(piece) ([1]; 2 mg/ml atomization inspired, day 8): 2 piece; average survival day (day, x ± s) ([1]; 2 mg/ml atomization inspired, listed as gene recombinant human lysozyme): 12.93 ± 2.05 days; average survival day (day, x ± s) ([1]; 2 mg/ml atomization inspired, listed as recombinant human lysozyme): 12.93 ± 2.05 days; result of pathology detection of the mice lung tissue ([1]; high dose 2 mg/ml, 14th day): normal basically; result of pathology detection of the mice trachea ([1]; high dose 2 mg/ml, 14th day): Normal basically; result of pathology detection of the mice lung tissue ([1]; low dose 0.5 mg/ml, 14th day): bronchiole alveolar wall tissue gently thickening, few; result of pathology detection of the mice lung tissue ([1]; medium dose 1 mg/ml, 7th day): few monocaryon infiltrating; bacterial number ([1]; atomization inspired 0.5 (15000 u/piece), 0 day): 350 ± 21.5 CFU/mL; bacterial number ([1]; atomization inspired 1 (30000 u/piece), the 5th day): 78.30 ± 17.86**^ΔΔ CFU/mL; bacterial number ([1]; atomization inspired 2 (60000 u/piece), 0 day): 350 ± 21.5 CFU/mL; 95% feasible limits of ED50 ([1]; mice survival over 14 days, Bliss method): 200 to 900 µg/mL; ED50 (median effective dose) ([1]; mice survival over 14 days, Bliss method, atomization inspired): 530 µg/mL; average survival day (day, x ± s) [2, 5]: 9.30 ± 4.08 days; accumulative survival number [2, 6]: 12; survival rate (%) [2, 6]: 40.0%; Death number(piece) ([2]; 0.25 mg/ml atomization inspired, day 1): 0 piece; Death number(piece) ([2]; 0.25 mg/ml atomization inspired, day 2): 0 piece; Death number(piece) ([2]; 0.25 mg/ml atomization inspired, day 3): 1 piece; Death number(piece) ([2]; 0.25 mg/ml atomization inspired, day 4): 2 piece; Death number(piece) ([2]; 0.25 mg/ml atomization inspired, day 5): 3 piece; Death number(piece) ([2]; 0.25 mg/ml atomization inspired, day 6): 3 piece; Death number(piece) ([2]; 0.25 mg/ml atomization inspired, day 7): 5 piece; Death number(piece) ([2]; 0.25 mg/ml atomization inspired, day 8): 4 piece; Death number(piece) ([2]; 0.25 mg/ml atomization inspired, day 9): 0 piece; Death number(piece) ([2]; 0.25 mg/ml atomization inspired, day 10): 0 piece; Death number(piece) ([2]; 0.25 mg/ml atomization inspired, day 11): 0 piece; Death number(piece) ([2]; 0.25 mg/ml atomization inspired, day 12): 0 piece; Death number(piece) ([2]; 0.25 mg/ml atomization inspired, day 13): 0 piece; Death number(piece) ([2]; 0.25 mg/ml atomization inspired, day 14): 0 piece; survival elevation rate (%) [2, 5]: 23.3%; average survival day (day, x ± s) ([2]; 0.5 mg/ml atomization inspired): 10.3 ± 3.77***^Δ day; accumulative survival number [2, 7]: 14; survival rate (%) [2, 7]: 46.7%; Death number(piece) ([2]; 0.5 mg/ml atomization inspired, day 1): 0 piece; Death number(piece) ([2]; 0.5 mg/ml atomization inspired, day 2): 0 piece; Death number(piece) ([2]; 0.5 mg/ml atomization inspired, day 3): 0 piece; Death number(piece) ([2]; 0.5 mg/ml atomization inspired, day 4): 2 piece; Death number(piece) ([2]; 0.5 mg/ml atomization inspired, day 5): 2 piece; Death number(piece) ([2]; 0.5 mg/ml atomization inspired, day 6): 3 piece; Death number(piece) ([2]; 0.5 mg/ml atomization inspired, day 8): 5 piece; Death number(piece) ([2]; 0.5 mg/ml atomization inspired, day 9): 0 piece; Death number(piece) ([2]; 0.5 mg/ml atomization inspired, day 10): 0 piece; Death number(piece) ([2]; 0.5 mg/ml atomization inspired, day 11): 0 piece; Death number(piece) ([2]; 0.5 mg/ml atomization inspired, day 12): 0 piece; Death number(piece) ([2]; 0.5 mg/ml atomization inspired, day 13): 0 piece; Death number(piece) ([2]; 0.5 mg/ml atomization inspired, day 14): 0 piece; survival elevation rate (%) ([2]; 0.5 mg/ml atomization inspired): 30.0%; survival rate ([2]; 1 mg/ml atomization inspired, 14 days): 56.7%; average survival day (day, x ± s) ([2]; 2 mg/ml atomization inspired): 12.93 ± 2.05***^ΔΔΔ day
